Columns and labels:
C57BL/6N male mice = assay: Inhibitory effect on increased blood glucose after oral glucose load in fasted mice; assay type: in vivo; settings: one hour before glucose load (3 g/kg, p.o.), C57BL/6N male mice fasted 21 hours
Protocol: C57BL/6N male mice was fasted for 21 hours, and then a stratified randomization allocation was carried out by EXSUS Ver7.6 NP (Arm Systex Co., Ltd.) based on body weights (n=8). Vehicle (solvent: 0.1% Tween 80/0.5% hydroxypropyl methylcellulose) (control group) or a suspended solution of a test compound in the vehicle (test compound group) was orally administered to the mice, and a glucose load (3 g/kg, p.o.) was carried out one hour after administration of a test compound. Blood samplings from the test mice were carried out at each time point of just before administration of drug (−60 min), immediately before glucose load (0 min), 30 minutes (30 min), 60 minutes (60 min) and 120 minutes (120 min) after glucose load. Blood glucose levels at each time point were measured by glucose CII-Test Wako (manufactured by Wako Pure Chemical Industries, Ltd.), AUC (0-120 min) was calculated in each administration group on the basis of the measured value, and evaluated by time-dependent variance analysis and Student's t-Test using EXSUS Ver7.6NP (Arm Systex Co., Ltd.).
An inhibitory effect on increased blood glucose of each test compound (A ratio value of AUC (0-120 min) of the test compound group in case that AUC (0-120 min) of the control group is 100) is shown in the following Table 36.

human GPR119 = molecular target: T1, human GPR119 (Homo sapiens, UniProt Q8TDV5); assay: GPR119 agonistic activity: cAMP production in human GPR119-expressed CHO cells (HTRF cAMP kit); assay type: cell-based; settings: human GPR119-expressed CHO cells (L8-18), 37° C. for 30 minutes, 500 μM IBMX
T1 construct: expressed in transfected cells; host or cells: CHO cells (LM-3 mock cells carrying luciferase reporter pLG3-CRE6-CRE-VIP); resulting line L8-18
T1 sequence (Q8TDV5 1-335): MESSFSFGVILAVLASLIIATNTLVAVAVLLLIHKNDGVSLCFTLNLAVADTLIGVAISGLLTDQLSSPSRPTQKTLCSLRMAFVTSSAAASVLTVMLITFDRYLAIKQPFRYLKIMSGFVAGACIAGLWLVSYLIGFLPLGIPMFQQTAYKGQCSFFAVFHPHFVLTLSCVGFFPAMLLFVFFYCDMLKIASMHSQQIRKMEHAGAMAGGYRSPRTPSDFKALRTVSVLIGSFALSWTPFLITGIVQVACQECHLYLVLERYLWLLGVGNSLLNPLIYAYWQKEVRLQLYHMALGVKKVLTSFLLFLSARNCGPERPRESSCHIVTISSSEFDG
Protocol: The present experiment is directed to evaluate GPR119 agonistic activity (in vitro) of test compounds by adding the compounds to human GPR119-expressed CHO cells to determine cAMP production of the cells.
Human GPR119-expressed CHO cells (L8-18) were prepared by introducing an expression vector pMSF1-GPR119 (Geneticin-resistance) carrying human GPR119 genes into CHO cells (LM-3; Mock cells) wherein lusiferase expression vector pLG3-CRE6-CRE-VIP (Hygromycin B-resistance) were introduced according to the known method (The Journal of Biological Chemistry Vol. 274 (34), pp. 23940-23947).
Cryopreserved L8-18 cells were melted, and then suspended into 9-fold amounts of assay buffer and centrifuged (1000 rpm, 5 minutes) at room temperature. The supernatant was removed, and then the precipitated cells were resuspended into assay buffer (4 mL). Thereto was added assay buffer which contained IBMX (manufactured by Sigma, #17018-1G), and 7.5×10^4 cells/mL of cell suspension was prepared. The cell suspension was let stand at room temperature for 15 minutes, and then to each well of 96 half well white plate (manufactured by Corning Incorporated, #3693) were added the cell suspension (20 μL) and a solution of a test compound or AR231453 (5 μL; a total of 25 (final concentration: 1500 cells/well, 500 μM IBMX, 1% dimethylsulfoxide). The mixture was incubated at 37° C. for 30 minutes, and then to each well were added a 20-fold diluted solution (each 12.5 μL/well) of cAMP-d2 and Anti cAMP-Cryptate of HTRF cAMP kit (manufactured by Cisbio, #62AM4PEC). The mixture was stirred, and then was let stand for 1 hour under light shielding. A fluorescence intensity was measured by time-resolved fluorescence mode (Ex: 320 nm, Em: 665 nm, 620 nm) of Microplate Reader (ARVO or SpectraMax M5e). In ARVO, Ratios [Ratio=(665 nm/620 nm)×10^4)] of cAMP-d2 to Anti cAMP-Cryptate were calculated from the resulting fluorescence intensity, and cAMP concentrations of each well were calculated from cAMP standard curve prepared by the Ratios and GraphPad Prism. In SpectraMax M5e, cAMP concentrations of each well were calculated on the basis of a standard curve prepared by the resulting fluorescence intensity and Softmax Pro.
EC50 of test compounds were calculated by GraphPad Prism.

EC50 (human GPR119)	SMILES	Inhibitory Effect on Increased Blood Glucose (ratio value of AUC (0-120 min) of test compound group, control group = 100) (C57BL/6N male mice; 3 mg/kg orally)	other results
< 1000 nM	CN(CCCO)C(=O)c1ccc(Nc2ncnc3c2c(F)cn3C2CCN(c3ncc(C4CC4)cn3)CC2)c(F)c1 [Example Compound 138]	–	–
< 1000 nM	CN(CCO)C(=O)c1ccc(Nc2ncnc3c2c(F)cn3C2CCN(c3ncc(OC(F)F)cn3)CC2)c(F)c1 [Example Compound 193]	–	–
< 1000 nM	CC(C)Oc1cnc(N2CCC(n3cc(F)c4c(Nc5ccc(C(=O)N(C)C)cc5F)ncnc43)CC2)nc1 [Example Compound 56]	–	–
< 1000 nM	CN(C)C(=O)c1ccc(Nc2ncnc3c2c(F)cn3C2CCN(C(=O)OC(C)(C)C)CC2)c(Cl)c1 [Example Compound 17]	–	–
< 1000 nM	CC(C)(C)OC(=O)N1CCC(n2cc(F)c3c(Nc4ccc(S(C)(=O)=O)cc4Cl)ncnc32)CC1 [Example Compound 13]	–	–
< 1000 nM	CC(C)(C)OC(=O)N1CCC(n2cc(F)c3c(Oc4ccc(S(C)(=O)=O)cc4F)ncnc32)CC1 [Example Compound 3, tert-butyl 4-[5-fluoro-4-(2-fluoro-4-mesylphenoxy)pyrrolo[2,3-d]pyrimidin-7-yl]piperidine-1-carboxylate]	–	–
< 1000 nM	CC(C)(C)OC(=O)N1CCC(n2cc(F)c3c(Nc4ccc(-n5cncn5)cc4F)ncnc32)CC1 [Example Compound 15]	–	–
< 1000 nM	CC(C)Oc1cnc(N2CCC(n3cc(F)c4c(Nc5ccc(C(=O)N(C)CCO)cc5F)ncnc43)CC2)nc1 [Example Compound 153]	84	–
< 1000 nM	CC(C)c1noc(N2CCC(n3cc(F)c4c(Nc5ccc(C(=O)N(C)C)cc5Cl)ncnc43)CC2)n1 [Example Compound 21]	–	–
< 1000 nM	CN(C)C(=O)c1ccc(Nc2ncnc3c2c(F)cn3C2CCN(C(=O)OC(C)(C)C)CC2)c(F)c1 [Example Compound 1, tert-butyl 4-[4-(4-dimethylcarbamoyl-2-fluorophenylamino)-5-fluoropyrrolo[2,3-d]pyrimidin-7-yl]piperidine-1-carboxylate]	–	–
< 1000 nM	CN(CCCO)C(=O)c1ccc(Nc2ncnc3c2c(F)cn3C2CCN(c3noc(C(F)(F)F)n3)CC2)c(F)c1 [Example Compound 184]	–	–
< 1000 nM	CN(C)C(=O)c1ccc(Nc2ncnc3c2c(F)cn3C2CCN(c3ncc(C(F)(F)F)cn3)CC2)c(F)c1 [Example Compound 54]	–	–
1000 to 3000 nM	CC(C)OC(=O)N1CCC(n2cc(Cl)c3c(Nc4ncc(C(=O)N(C)C)cc4Cl)ncnc32)CC1 [Example Compound 2, isopropyl 4-[5-chloro-4-(3-chloro-5-dimethylcarbamoylpyridin-2-ylamino)pyrrolo[2,3-d]pyrimidin-7-yl]piperidine-1-carboxylate]	–	–

Second part, the molecule before the results:

SMILES	EC50 (human GPR119)	Inhibitory Effect on Increased Blood Glucose (ratio value of AUC (0-120 min) of test compound group, control group = 100) (C57BL/6N male mice; 3 mg/kg orally)	other results
CCc1cnc(N2CCC(n3cc(F)c4c(Nc5ccc(C(=O)N6CC[C@@H](O)C6)cc5Cl)ncnc43)CC2)nc1 [Example Compound 185]	–	–	Inhibitory Effect on Increased Blood Glucose (ratio value of AUC (0-120 min) of test compound group, control group = 100) (C57BL/6N male mice; 1 mg/kg orally): 89
CCc1cnc(N2CCC(n3cc(F)c4c(Nc5ccc(C(=O)N6CC[C@@H](O)C6)cc5F)ncnc43)CC2)nc1 [Example Compound 61]	< 1000 nM	–	Inhibitory Effect on Increased Blood Glucose (ratio value of AUC (0-120 min) of test compound group, control group = 100) (C57BL/6N male mice; 10 mg/kg orally): 85
CN(CCO)C(=O)c1ccc(Nc2ncnc3c2c(F)cn3C2CCN(c3ncc(Cl)cn3)CC2)c(F)c1 [Example Compound 134]	–	82	–
CCc1cnc(N2CCC(n3cc(F)c4c(Nc5ccc(S(C)(=O)=O)cc5F)ncnc43)CC2)nc1 [Example Compound 77]	< 1000 nM	–	–
CN(CCO)C(=O)c1ccc(Nc2ncnc3c2c(F)cn3C2CCN(c3ncc(C4CC4)cn3)CC2)c(F)c1 [Example Compound 129]	–	88	–
CCc1cnc(N2CCC(n3cc(F)c4c(Nc5ccc(C(=O)N6CC[C@H](O)C6)cc5F)ncnc43)CC2)nc1 [Example Compound 62]	< 1000 nM	–	Inhibitory Effect on Increased Blood Glucose (ratio value of AUC (0-120 min) of test compound group, control group = 100) (C57BL/6N male mice; 10 mg/kg orally): 86
CC(C)c1cnc(N2CCC(n3cc(F)c4c(Nc5ccc(C(=O)N(C)CCO)cc5F)ncnc43)CC2)nc1 [Example Compound 124]	–	86	–
CC(C)c1nc(N2CCC(n3cc(F)c4c(Nc5ccc(C(=O)N(C)CCO)cc5F)ncnc43)CC2)no1 [Example Compound 115]	–	92	–
O=C(c1ccc(Nc2ncnc3c2c(F)cn3C2CCN(c3noc(C(F)(F)F)n3)CC2)c(F)c1)N1CC[C@@H](O)C1 [Example Compound 178]	–	–	Inhibitory Effect on Increased Blood Glucose (ratio value of AUC (0-120 min) of test compound group, control group = 100) (C57BL/6N male mice; 1 mg/kg orally): 88
CC(C)c1cnc(N2CCC(n3cc(F)c4c(Nc5ccc(C(=O)N6CCC[C@@H](O)C6)cc5F)ncnc43)CC2)nc1 [Example Compound 132]	–	90	–
CC(C)OC(=O)N1CCC(n2cc(F)c3c(Nc4ccc(C(=O)N5CCCC5)cc4F)ncnc32)CC1 [Example Compound 163]	–	86	–
CCCc1cnc(N2CCC(n3cc(F)c4c(Nc5ccc(C(=O)N6CC[C@@H](O)C6)cc5F)ncnc43)CC2)nc1 [Example Compound 121]	–	82	–
O=C(c1ccc(Nc2ncnc3c2c(F)cn3C2CCN(c3ncc(C4CC4)cn3)CC2)c(F)c1)N1CC[C@@H](O)C1 [Example Compound 128]	–	83	–
CCc1cnc(N2CCC(n3cc(F)c4c(Nc5cc(F)c(C(=O)N(C)CCO)cc5F)ncnc43)CC2)nc1 [Example Compound 164]	< 1000 nM	–	–
CC(C)Oc1cnc(N2CCC(n3cc(F)c4c(Nc5ccc(C(=O)N(C)CCCO)cc5F)ncnc43)CC2)nc1 [Example Compound 154]	–	86	–
CCc1cnc(N2CCC(n3cc(F)c4c(Nc5ccc(C(=O)N(C)C)cc5F)ncnc43)CC2)nc1 [Example Compound 6, 4-[7-[1-(5-ethylpyrimidin-2-yl)piperidin-4-yl]-5-fluoro-7H-pyrrolo[2,3-d]pyrimidin-4-ylamino]-3-fluoro-N,N-dimethylbenzamide]	–	–	Inhibitory Effect on Increased Blood Glucose (ratio value of AUC (0-120 min) of test compound group, control group = 100) (C57BL/6N male mice; 10 mg/kg orally): 85
CCc1cnc(N2CCC(n3cc(F)c4c(Nc5ccc(C(=O)N(C)CCO)cc5F)ncnc43)CC2)nc1 [Example Compound 8, 4-[7-[1-(5-ethylpyrimidin-2-yl)piperidin-4-yl]-5-fluoro-7H-pyrrolo[2,3-d]pyrimidin-4-ylamino]-3-fluoro-N-(2-hydroxyethyl)-N-methylbenzamide]	–	–	Inhibitory Effect on Increased Blood Glucose (ratio value of AUC (0-120 min) of test compound group, control group = 100) (C57BL/6N male mice; 10 mg/kg orally): 83
CC(C)c1noc(N2CCC(n3cc(F)c4c(Nc5ccc(C(=O)N6CCCC6)cc5F)ncnc43)CC2)n1 [Example Compound 161]	–	87	–

Reference: patent US20120016119A1, “NOVEL PYRROLO(2,3-d)PYRIMIDINE COMPOUND” (priority 2009, published 2012)
